Measurements: patent publication US8338594B2, “Pyrrolotriazine derivatives useful for treating cancer through inhibition of aurora kinase” (Bayer HealthCare LLC, priority 2005, dated 2012)

Tests used:
[1] = target: T1, murine Aurora Kinase 1 (mAur1) (Mus musculus, UniProt O70126); experiment: murine Aurora Kinase 1 (mAur1) biochemical Scintillation Proximity Assay; details: SPA, biotinylated Peptide 830, 1 μM ATP, 12 nM GST-tagged mAur 1 co-expressed with human INCENP
T1 construct: recombinant, GST-tagged mAur 1 (amino acids 67-345) that was co-expressed with human INCENP; GST; made in house
Description: (§1) Using a Scintillation Proximity Assay (SPA) format, the murine Aurora Kinase 1 (mAur1) and murine Aurora Kinase 2 (mAur2) biochemical assay measures the ability of mAur2 to phosphorylate the substrate, biotinylated Peptide 830 (DRT, Protein Sciences). Once radiolabeled by the enzyme, the biotinylated substrate is captured on streptavidin-coated SPA beads and the radioactivity, in proximity to the SPA beads, is measured. For the generation of IC50 curves, the reaction was performed in 96-well isoplates (Wallac 1450-514) under the following conditions: a 10 mM stock solution of compound (in 100% dimethylsulfoxide; DMSO) was diluted 10 fold in 100% DMSO. Compounds were then serially diluted, 1:5, for an eight point dose curve, in 100% DMSO. A volume of 1 μL of the diluted compound was added to the reaction buffer that consisted of 25 mM HEPES pH 7.5, 1 mM MnCl2, 1 mM MgCl2, 1 mM DTT, 0.01% Tween20. A mixture with a final concentration per well of 1 μM cold ATP, 0.1 μCi ^33P-ATP (Amersham AH9968) and 1 μM biotinylated Peptide 830 was then added. The reaction was initiated with the addition of either recombinant, GST-tagged mAur 1 (amino acids 67-345) that was co-expressed with human INCENP (amino acids 704-919) (DRT, Protein Sciences) at a final concentration of 12 nM or N-terminal His-tagged mAur2 (amino acids 98-395; DRT, Protein Sciences) at a final concentration of 20 nM. The final reaction volume in each well was 100 μL and the final compound concentration ranged from 10 μM-[…] in 1% DMSO. The reaction mixture was allowed to incubate for 1-2 hours with gentle agitation at 25° C. To terminate the reaction, streptavidin-coated SPA beads (Amersham RPNQ0007; 50 μL of 0.5 mg beads dissolved in 165 mM EDTA) were then added to each well and incubation proceeded for an additional 15 minutes at 25° C. The plate was then centrifuged for ten minutes at 2000 rpm. Phosphorylation of the peptide substrate was measured using a Wallac 1450 Microbeta Plus Liquid Scintillation Counter.

[2] = target: T2, murine Aurora Kinase 2 (mAur2) (Mus musculus, UniProt P97477); experiment: murine Aurora Kinase 2 (mAur2) biochemical Scintillation Proximity Assay; details: SPA, biotinylated Peptide 830, 1 μM ATP, 20 nM His-tagged mAur2
T2 construct: N-terminal His-tagged mAur2 (amino acids 98-395; DRT, Protein Sciences); His (N); made in house
T2 sequence (P97477 98-395): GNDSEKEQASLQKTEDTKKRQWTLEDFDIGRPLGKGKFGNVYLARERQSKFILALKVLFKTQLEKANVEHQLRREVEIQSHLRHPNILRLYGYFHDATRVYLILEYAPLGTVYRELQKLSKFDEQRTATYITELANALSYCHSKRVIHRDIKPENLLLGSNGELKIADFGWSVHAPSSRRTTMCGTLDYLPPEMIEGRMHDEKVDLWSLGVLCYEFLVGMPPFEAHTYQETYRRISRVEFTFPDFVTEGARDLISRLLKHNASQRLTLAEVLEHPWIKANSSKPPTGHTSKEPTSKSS
Description: as §1

T1 sequence (O70126 67-345): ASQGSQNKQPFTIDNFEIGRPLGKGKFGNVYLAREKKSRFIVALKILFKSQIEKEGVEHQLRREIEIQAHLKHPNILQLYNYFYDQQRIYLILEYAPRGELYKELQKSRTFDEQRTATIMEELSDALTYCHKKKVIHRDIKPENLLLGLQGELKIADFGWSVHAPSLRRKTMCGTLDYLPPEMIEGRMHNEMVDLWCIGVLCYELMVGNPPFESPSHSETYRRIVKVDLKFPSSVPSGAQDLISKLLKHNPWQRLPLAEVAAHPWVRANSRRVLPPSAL
T1 sequence (Q9NQS7 704-918 partner): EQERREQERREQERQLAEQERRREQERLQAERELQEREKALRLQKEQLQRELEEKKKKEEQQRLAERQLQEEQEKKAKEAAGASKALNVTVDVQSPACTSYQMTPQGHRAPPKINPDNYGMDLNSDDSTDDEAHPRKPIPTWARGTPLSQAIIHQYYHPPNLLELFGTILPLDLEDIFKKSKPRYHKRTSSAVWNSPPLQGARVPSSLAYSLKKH

IC50 [1] [nM] | IC50 [2] [nM] | Structure (SMILES)
< 100 | < 100 | Cc1cccc2nc(Nc3ccc(-c4c(C(=O)NCC(F)(F)F)cn5ncnc(N)c45)cc3)[nH]c12 [Example 22, 4-amino-5-{4-[(7-methyl-1H-benzimidazol-2-yl)amino]phenyl}-N-(2,2,2-trifluoroethyl)pyrrolo[2,1-f][1,2,4]triazine-6-carboxamide]
< 100 | < 100 | Nc1ncnn2cc(C(=O)NC3CCCC3)c(-c3ccc(Nc4nc5cc(F)cc(F)c5[nH]4)cc3)c12 [Example 85, 4-amino-N-cyclopentyl-5-{4-[(5,7-difluoro-1H-benzimidazol-2-yl)amino]phenyl}pyrrolo[2,1-f][1,2,4]triazine-6-carboxamide]
< 100 | < 100 | NC(=O)C1CCN(C(=O)c2cn3ncnc(N)c3c2-c2ccc(Nc3nc4cc(F)cc(F)c4[nH]3)cc2)CC1 [Example 81, 1-[(4-amino-5-{4-[(5,7-difluoro-1H-benzimidazol-2-yl)amino]phenyl}pyrrolo[2,1-f][1,2,4]triazin-6-yl)carbonyl]piperidine-4-carboxamide]
< 100 | < 100 | Cc1cccc(Oc2ccc3nc(Nc4ccc(-c5c(C(=O)NCC(F)(F)F)cn6ncnc(N)c56)cc4)[nH]c3c2F)c1 [Example 42, 4-amino-5-(4-{[7-fluoro-6-(3-methylphenoxy)-1H-benzimidazol-2-yl]amino}phenyl)-N-(2,2,2-trifluoroethyl)pyrrolo[2,1-f][1,2,4]triazine-6-carboxamide]
< 100 | < 100 | Nc1ncnn2cc(C(=O)N3CCCC3)c(-c3ccc(Nc4nc5ccc(Oc6ccccc6)c(F)c5[nH]4)cc3)c12 [Example 113, 5-{4-[(7-fluoro-6-phenoxy-1H-benzimidazol-2-yl)amino]phenyl}-6-(pyrrolidin-1-ylcarbonyl)pyrrolo[2,1-f][1,2,4]triazin-4-amine]
< 100 | < 100 | Nc1ncnn2cc(C(=O)NCC(F)(F)F)c(-c3ccc(Nc4nc5cc6c(cc5[nH]4)OC(F)(F)O6)c(F)c3)c12 [Example 60, 4-amino-5-{4-[(2,2-difluoro-5H-[1,3]dioxolo[4,5-f]benzimidazol-6-yl)amino]-3-fluorophenyl}-N-(2,2,2-trifluoroethyl)pyrrolo[2,1-f][1,2,4]triazine-6-carboxamide]
< 100 | < 100 | CCN(C(=O)c1cn2ncnc(N)c2c1-c1ccc(Nc2nc3cc(F)cc(F)c3[nH]2)cc1)C(C)C [Example 90, 4-amino-5-{4-[(5,7-difluoro-1H-benzimidazol-2-yl)amino]phenyl}-N-ethyl-N-isopropylpyrrolo[2,1-f][1,2,4]triazine-6-carboxamide]
< 100 | < 100 | COCCNC(=O)c1cn2ncnc(N)c2c1-c1ccc(Nc2nc3ccc(Oc4ccccc4)c(F)c3[nH]2)cc1 [Example 110, 4-amino-5-{4-[(7-fluoro-6-phenoxy-1H-benzimidazol-2-yl)amino]phenyl}-N-(2-methoxyethyl)pyrrolo[2,1-f][1,2,4]triazine-6-carboxamide]
< 100 | < 100 | Nc1ncnn2cc(C(=O)NCC(F)(F)F)c(-c3ccc(Nc4nc5ccc(Sc6cccc(F)c6)nc5[nH]4)cc3)c12 [Example 50, 4-amino-5-[4-({5-[(3-fluorophenyl)thio]-3H-imidazo[4,5-b]pyridin-2-yl}amino)phenyl]-N-(2,2,2-trifluoroethyl)pyrrolo[2,1-f][1,2,4]triazine-6-carboxamide]
< 100 | < 100 | Nc1ncnn2cc(C(=O)N3CCCCC3)c(-c3ccc(Nc4nc5ccc(Oc6ccccc6)c(F)c5[nH]4)cc3)c12 [Example 107, 5-{4-[(7-fluoro-6-phenoxy-1H-benzimidazol-2-yl)amino]phenyl}-6-(piperidin-1-ylcarbonyl)pyrrolo[2,1-f][1,2,4]triazin-4-amine]
< 100 | < 100 | CCCN(C)C(=O)c1cn2ncnc(N)c2c1-c1ccc(Nc2nc3cc(F)cc(F)c3[nH]2)cc1 [Example 93, 4-amino-5-{4-[(5,7-difluoro-1H-benzimidazol-2-yl)amino]phenyl}-N-methyl-N-propylpyrrolo[2,1-f][1,2,4]triazine-6-carboxamide]
< 100 | < 100 | Nc1ncnn2cc(C(=O)N3CCOCC3)c(-c3ccc(Nc4nc5cc(F)cc(F)c5[nH]4)cc3)c12 [Example 76, 5-{4-[(5,7-difluoro-1H-benzimidazol-2-yl)amino]phenyl}-6-(morpholin-4-ylcarbonyl)pyrrolo[2,1-f][1,2,4]triazin-4-amine]
< 100 | < 100 | Nc1ncnn2cc(C(=O)O)c(-c3ccc(Nc4nc5ccc(C(F)(F)F)nc5[nH]4)cc3)c12 [Example 119]
< 100 | < 100 | Nc1ncnn2cc(C(=O)NCC(F)(F)F)c(-c3ccc(Nc4nc5ccc(C(F)(F)F)nc5[nH]4)cc3)c12 [Example 120, 4-amino-N-(2,2,2-trifluoroethyl)-5-(4-{[5-(trifluoromethyl)-3H-imidazo[4,5-b]pyridin-2-yl]amino}phenyl)pyrrolo[2,1-f][1,2,4]triazine-6-carboxamide]
< 100 | < 100 | Nc1ncnn2cc(C(=O)NCC(F)(F)F)c(-c3ccc(Nc4nc5cscc5[nH]4)cc3)c12 [Example 16, 4-amino-5-[4-(1H-thieno[3,4-d]imidazol-2-ylamino)phenyl]-N-(2,2,2-trifluoroethyl)pyrrolo[2,1-f][1,2,4]triazine-6-carboxamide]
< 100 | < 100 | Nc1ncnn2cc(C(=O)NCC(F)(F)F)c(-c3ccc(Nc4nc5cc(I)cnc5[nH]4)cc3)c12 [Example 25, 4-amino-5-{4-[(6-iodo-3H-imidazo[4,5-b]pyridin-2-yl)amino]phenyl}-N-(2,2,2-trifluoroethyl)pyrrolo[2,1-f][1,2,4]triazine-6-carboxamide]
< 100 | < 100 | Nc1ncnn2cc(C(=O)NCC(F)(F)F)c(-c3ccc(Nc4nc5cc(F)cc(F)c5[nH]4)cc3)c12 [Example 6, 4-amino-5-{4-[(5,7-difluoro-1H-benzimidazol-2-yl)amino]phenyl}-N-(2,2,2-trifluoroethyl)pyrrolo[2,1-f][1,2,4]triazine-6-carboxamide]
< 100 | < 100 | Nc1ncnn2cc(C(=O)NCC(F)(F)F)c(-c3ccc(Nc4nc5ccc(Oc6cccc(F)c6)c(F)c5[nH]4)cc3)c12 [Example 40, 4-amino-5-(4-{[7-fluoro-6-(3-fluorophenoxy)-1H-benzimidazol-2-yl]amino}phenyl)-N-(2,2,2-trifluoroethyl)pyrrolo[2,1-f][1,2,4]triazine-6-carboxamide]
< 100 | < 100 | Nc1ncnn2cc(C(=O)O)c(-c3ccc(Nc4nc5cc(F)cc(F)c5[nH]4)cc3)c12 [Example 71, 4-amino-5-{4-[(5,7-difluoro-1H-benzimidazol-2-yl)amino]phenyl}pyrrolo[2,1-f][1,2,4]triazine-6-carboxylic acid]
< 100 | < 100 | CCN(C)C(=O)c1cn2ncnc(N)c2c1-c1ccc(Nc2nc3ccc(Oc4ccccc4)c(F)c3[nH]2)cc1 [Example 106, 4-amino-N-ethyl-5-{4-[(7-fluoro-6-phenoxy-1H-benzimidazol-2-yl)amino]phenyl}-N-methylpyrrolo[2,1-f][1,2,4]triazine-6-carboxamide]
